# According to the supplement of paper PMC11061612:
# Experiments:
# Assay in all cases: Bliss excess, mean over the matrix (fraction); higher = more synergy
# [1] = test system: 42-MG-BA (Glioblastoma)
# Summary of the method: (§1)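 After 24 hours at 37°C and 5% CO2 in 1536-well plates, cells in DMEM/F12 or RPMI plus 10% FBS received two-drug dose matrices for 72 hours. Viability came from CellTiter-Glo 2.0 luminescence and was scaled as inhibition, anchored at 0 by vehicle wells and at 1 by blank wells. Combination Emax is taken as the second-highest inhibition in the matrix, and Bliss excess as the observed combination effect less EA + EB − EA·EB, with EA and EB the single-agent effects.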
# [2] = test system: B-CPAP (Thyroid Gland Carcinoma)
# Summary of the method: as §1
# [3] = test system: CAL-148 (Breast Carcinoma)
# Summary of the method: as §1
# [4] = test system: Calu-3 (Lung Adenocarcinoma)
# Summary of the method: as §1
# [5] = test system: DEL (T-Cell Non-Hodgkin's Lymphoma)
# Summary of the method: as §1
# [6] = test system: DoTc2-4510 (Cervical Carcinoma)
# Summary of the method: as §1
# [7] = test system: ES4 (Ewing's Sarcoma)
# Summary of the method: as §1
# [8] = test system: HCC1806 (Breast Carcinoma)
# Summary of the method: as §1
# [9] = test system: HO-1-N-1 (Oral Cavity Carcinoma)
# Summary of the method: as §1
# [10] = test system: Hs-578-T (Breast Carcinoma)
# Summary of the method: as §1
# [11] = test system: KURAMOCHI (Ovarian Carcinoma)
# Summary of the method: as §1
# [12] = test system: KYSE-520 (Esophageal Squamous Cell Carcinoma)
# Summary of the method: as §1
# [13] = test system: LNCaP-Clone-FGC (Prostate Carcinoma)
# Summary of the method: as §1
# [14] = test system: LS-180 (Colorectal Carcinoma)
# Summary of the method: as §1
# [15] = test system: ME-1 (Acute Myeloid Leukemia)
# Summary of the method: as §1
# [16] = test system: NCI-H82 (Small Cell Lung Carcinoma)
# Summary of the method: as §1
# [17] = test system: RO82-W-1 (Thyroid Gland Carcinoma)
# Summary of the method: as §1
# [18] = test system: Ramos-2G6-4C10 (Burkitt's Lymphoma)
# Summary of the method: as §1
# [19] = test system: TCCSUP (Bladder Carcinoma)
# Summary of the method: as §1
# [20] = test system: UM-UC-3 (Bladder Carcinoma)
# Summary of the method: as §1
Compound,Bliss excess [1],Bliss excess [2],Bliss excess [3],Bliss excess [4],Bliss excess [5],Bliss excess [6],Bliss excess [7],Bliss excess [8],Bliss excess [9],Bliss excess [10],Bliss excess [11],Bliss excess [12],Bliss excess [13],Bliss excess [14],Bliss excess [15],Bliss excess [16],Bliss excess [17],Bliss excess [18],Bliss excess [19],Bliss excess [20]
"Cn1cnc2c(F)c(Nc3ccc(Br)cc3Cl)c(C(=O)NOCCO)cc21 [Selumetinib] + CCN(CCO)CCCOc1ccc2c(Nc3cc(CC(=O)Nc4cccc(F)c4)[nH]n3)ncnc2c1 [AZD2811] (first compound max 10 µM, 7x7, partner max 1 µM)",-0.0458,0.001,-0.029,-0.0353,0.263,-0.0098,-0.0398,-0.0063,-0.0692,0.0203,-0.0203,0.0547,0.0253,-0.0541,-0.0296,0.0317,0.0016,-0.0321,-0.0822,-0.048
"Cn1cnc2c(F)c(Nc3ccc(Br)cc3Cl)c(C(=O)NOCCO)cc21 [Selumetinib] + C[C@@H]1COCCN1C2=NC(=NC(=C2)C3(CC3)[S@](=N)(=O)C)C4=C5C=CNC5=NC=C4 [AZD6738] (first compound max 10 µM, 7x7, partner max 10 µM)",-0.0061,-0.0026,-0.0407,-0.0295,0.0172,-0.0282,-0.039,0.0496,-0.0475,0.009,0.0517,0.0227,-0.0018,-0.0516,-0.0752,-0.0337,-0.0242,-0.0714,-0.0141,0.0057
"CC(=O)Nc1cccc(-n2c(=O)n(C3CC3)c(=O)c3c(Nc4ccc(I)cc4F)n(C)c(=O)c(C)c32)c1 [Trametinib] + Cc1nc(-c2cn3c(n2)-c2ccc(-c4cnn(C(C)(C)C(N)=O)c4)cc2OCC3)n(C(C)C)n1 [Taselisib] (first compound max 1 µM, 7x7, partner max 10 µM)",0.0593,0.141,0.0554,0.162,0.166,0.143,0.0891,0.257,0.268,0.0773,0.115,0.0534,-0.0056,0.0957,0.118,0.0361,0.0426,-0.0053,0.0896,0.137
"CC1(C)CCC(CN2CCN(c3ccc(C(=O)NS(=O)(=O)c4ccc(NCC5CCOCC5)c([N+](=O)[O-])c4)c(Oc4cnc5[nH]ccc5c4)c3)CC2)=C(c2ccc(Cl)cc2)C1 [Venetoclax] + C1CN(CCC1(C(=O)N[C@@H](CCO)C2=CC=C(C=C2)Cl)N)C3=NC=NC4=C3C=CN4 [Capivasertib] (first compound max 1 µM, 7x7, partner max 3 µM)",-0.0239,-0.0312,-0.0444,-0.0116,-0.0589,-0.0185,-0.0231,-0.0087,-0.0176,-0.0255,-0.0538,-0.0575,-0.0464,-0.0173,0,-0.0458,-0.0312,0.0177,-0.0196,0.0009
"CC1(C)CCC(CN2CCN(c3ccc(C(=O)NS(=O)(=O)c4ccc(NCC5CCOCC5)c([N+](=O)[O-])c4)c(Oc4cnc5[nH]ccc5c4)c3)CC2)=C(c2ccc(Cl)cc2)C1 [Venetoclax] + C=CCn1c(=O)c2cnc(Nc3ccc(N4CCN(C)CC4)cc3)nc2n1-c1cccc(C(C)(C)O)n1 [AZD1775] (first compound max 1 µM, partner max 1 µM)",-0.0687,-0.0835,0.0589,-0.0074,-0.027,0.0075,-0.0268,-0.026,0.0912,-0.0347,0.0572,-0.0907,-0.0599,-0.0559,0.0289,0.0342,-0.0757,0.127,-0.055,-0.0225
"CC1(C)CCC(CN2CCN(c3ccc(C(=O)NS(=O)(=O)c4ccc(NCC5CCOCC5)c([N+](=O)[O-])c4)c(Oc4cnc5[nH]ccc5c4)c3)CC2)=C(c2ccc(Cl)cc2)C1 [Venetoclax] + CCN(CCO)CCCOc1ccc2c(Nc3cc(CC(=O)Nc4cccc(F)c4)[nH]n3)ncnc2c1 [AZD2811] (first compound max 1 µM, 7x7, partner max 1 µM)",0.0019,0.0031,-0.0461,-0.0057,-0.0345,-0.0189,-0.029,0.0137,-0.032,-0.0451,-0.0237,-0.0294,-0.0706,-0.0106,-0.0118,0.0452,-0.0604,0.0321,-0.0259,-0.0234
